Laboratory results reported in ChEMBL document CHEMBL1201862, “PubChem BioAssay data set” (2004).
Activity calls are given as the source filed them.

Legend:
[1] = target: T1, RNA-binding protein pos-1 (Caenorhabditis elegans, UniProt G5EF15); test: disruptors of C. elegans POS-1 RNA interaction – biochemical, fluorescence polarization, dose response (AID 1964);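 further: purified POS-1 fused to maltose binding protein made in E. coli; potency of compounds blocking POS-1 binding to fluorescent RNA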
T1 sequence (G5EF15 whole entry): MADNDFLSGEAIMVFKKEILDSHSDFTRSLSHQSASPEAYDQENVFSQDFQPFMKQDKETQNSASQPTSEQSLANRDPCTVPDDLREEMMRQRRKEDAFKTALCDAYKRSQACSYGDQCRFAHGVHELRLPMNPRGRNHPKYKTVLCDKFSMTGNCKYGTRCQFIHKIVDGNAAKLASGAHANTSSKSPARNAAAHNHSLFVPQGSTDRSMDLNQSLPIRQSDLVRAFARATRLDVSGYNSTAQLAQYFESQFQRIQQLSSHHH

[2] = target: T2, Zinc finger protein mex-5 (Caenorhabditis elegans, UniProt Q9XUB2); test: potency of MEX-5 RNA-binding blockers – biochemical, C. elegans, fluorescence polarization, dose response (AID 1960)
T2 sequence (Q9XUB2 whole entry): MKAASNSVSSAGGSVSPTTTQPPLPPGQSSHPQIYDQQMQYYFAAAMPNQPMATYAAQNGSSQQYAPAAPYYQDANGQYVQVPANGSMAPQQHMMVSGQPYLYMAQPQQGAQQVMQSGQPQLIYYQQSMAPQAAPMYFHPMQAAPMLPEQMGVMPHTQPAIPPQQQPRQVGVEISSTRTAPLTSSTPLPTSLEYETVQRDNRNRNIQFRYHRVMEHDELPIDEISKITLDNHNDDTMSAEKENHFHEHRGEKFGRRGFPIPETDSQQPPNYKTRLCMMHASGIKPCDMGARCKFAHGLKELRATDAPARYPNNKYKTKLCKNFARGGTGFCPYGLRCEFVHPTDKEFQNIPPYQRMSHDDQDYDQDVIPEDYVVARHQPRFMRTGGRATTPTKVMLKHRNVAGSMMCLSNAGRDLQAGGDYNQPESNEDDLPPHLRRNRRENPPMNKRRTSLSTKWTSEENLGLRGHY

Streptococcus = test: GAS UMAA2166 growth inhibition – luminescence, BacTiterGlo, counter-screen for streptokinase expression inhibitor project, dose response (AID 1915); format: functional, organism-based;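 further: potency for reduction of bacterial viability or growth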
cells = format: functional
[3] = system: Streptococcus sp. 'group A'; test: Streptococcus pyogenes SK(-)GAS viability under kanamycin – luminescence, BacTiterGlo, confirmation, counter-screen for streptokinase expression inhibitor project, dose response (AID 1900); format: functional, organism-based
Streptokinase A = target: T3, Streptokinase A (Streptococcus pyogenes serotype M1, UniProt P10520); test: viability-normalized secreted streptokinase activity reduction – plasminogen activation absorbance, OD405, dose response (AID 1914); format: functional, Streptococcus pyogenes M1 GAS;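 further: secreted streptokinase activity via plasminogen activation per viability signal from cell pellet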
T3 sequence (P10520 whole entry): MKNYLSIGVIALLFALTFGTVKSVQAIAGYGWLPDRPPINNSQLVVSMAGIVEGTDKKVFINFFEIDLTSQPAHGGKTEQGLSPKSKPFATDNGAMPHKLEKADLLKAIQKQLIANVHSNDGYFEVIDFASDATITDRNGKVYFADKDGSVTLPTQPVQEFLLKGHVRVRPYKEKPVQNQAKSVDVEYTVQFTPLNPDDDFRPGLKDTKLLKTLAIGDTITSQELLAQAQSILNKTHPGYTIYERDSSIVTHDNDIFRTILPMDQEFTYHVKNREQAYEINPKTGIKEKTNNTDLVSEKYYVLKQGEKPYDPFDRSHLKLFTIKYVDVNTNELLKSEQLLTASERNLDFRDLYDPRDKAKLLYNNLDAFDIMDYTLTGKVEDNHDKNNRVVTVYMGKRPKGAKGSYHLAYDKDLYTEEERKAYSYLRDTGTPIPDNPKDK

Cytochrome P450 2D6 = Cytochrome P450 2D6 (Homo sapiens, UniProt P10635);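 further: CYP2D6 member of a cytochrome P450 panel assay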
Cytochrome P450 1A2 = target: T4, Cytochrome P450 1A2 (Homo sapiens, UniProt P05177);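 further: PubChem cytochrome P450 panel assay, CYP1A2 panel member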
T4 sequence (P05177 whole entry): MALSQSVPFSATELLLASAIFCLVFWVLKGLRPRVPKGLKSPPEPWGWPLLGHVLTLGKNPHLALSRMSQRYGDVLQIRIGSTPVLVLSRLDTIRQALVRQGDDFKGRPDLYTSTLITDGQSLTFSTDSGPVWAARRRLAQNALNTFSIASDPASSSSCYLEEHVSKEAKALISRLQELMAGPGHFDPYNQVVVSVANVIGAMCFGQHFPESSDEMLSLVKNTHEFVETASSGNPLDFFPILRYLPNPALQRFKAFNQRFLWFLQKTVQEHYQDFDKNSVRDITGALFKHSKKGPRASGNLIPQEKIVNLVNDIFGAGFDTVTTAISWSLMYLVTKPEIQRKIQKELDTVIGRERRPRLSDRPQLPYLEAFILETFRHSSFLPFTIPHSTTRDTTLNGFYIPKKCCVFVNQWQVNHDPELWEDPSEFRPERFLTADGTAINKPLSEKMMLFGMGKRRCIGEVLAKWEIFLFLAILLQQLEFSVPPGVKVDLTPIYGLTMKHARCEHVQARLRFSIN

Cytochrome P450 2C9 = Cytochrome P450 2C9 (Homo sapiens, UniProt P11712)
[4] = target: T5, Replicative DNA helicase DnaB (Mycobacterium tuberculosis, UniProt P9WMR3); test: DnaB intein splicing inhibitors, dose response, biochemical, cell-free fluorescence (AID 449749); format: functional
T5 sequence (P9WMR3 whole entry): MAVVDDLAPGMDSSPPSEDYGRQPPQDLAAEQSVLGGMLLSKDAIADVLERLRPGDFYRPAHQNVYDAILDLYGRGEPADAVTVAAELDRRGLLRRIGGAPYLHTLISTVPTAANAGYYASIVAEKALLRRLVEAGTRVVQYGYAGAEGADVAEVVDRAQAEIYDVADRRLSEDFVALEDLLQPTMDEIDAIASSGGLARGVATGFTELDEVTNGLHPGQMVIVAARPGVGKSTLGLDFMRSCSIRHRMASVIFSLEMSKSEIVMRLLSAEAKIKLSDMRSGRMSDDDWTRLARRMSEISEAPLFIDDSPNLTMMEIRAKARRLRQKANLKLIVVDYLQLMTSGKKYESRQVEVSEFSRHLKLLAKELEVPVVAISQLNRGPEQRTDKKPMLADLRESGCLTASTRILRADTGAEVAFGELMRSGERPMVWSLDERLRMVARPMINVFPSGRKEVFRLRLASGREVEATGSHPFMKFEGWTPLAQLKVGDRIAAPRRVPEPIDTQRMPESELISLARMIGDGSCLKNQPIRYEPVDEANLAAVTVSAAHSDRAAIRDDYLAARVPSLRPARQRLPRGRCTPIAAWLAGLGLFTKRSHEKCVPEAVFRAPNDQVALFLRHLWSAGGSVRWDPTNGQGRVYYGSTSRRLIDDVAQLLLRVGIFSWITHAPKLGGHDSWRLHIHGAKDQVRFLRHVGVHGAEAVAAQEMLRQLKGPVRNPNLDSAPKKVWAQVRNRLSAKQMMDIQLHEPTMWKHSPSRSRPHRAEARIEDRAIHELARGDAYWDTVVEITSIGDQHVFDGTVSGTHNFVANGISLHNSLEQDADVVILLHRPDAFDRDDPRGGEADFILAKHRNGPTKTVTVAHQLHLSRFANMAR

Protein RecA = target: T6, Protein RecA (Mycobacterium tuberculosis, UniProt P9WHJ3); test: Fluorescence Cell-Free Homogeneous Dose Retest to Identify Inhibitors of RecA-Intein Splicing Activity. [Related pubchem assays (depositor defined):AID2097, AID2223, AID489010, AID492950]; format: functional
T6 sequence (P9WHJ3 whole entry): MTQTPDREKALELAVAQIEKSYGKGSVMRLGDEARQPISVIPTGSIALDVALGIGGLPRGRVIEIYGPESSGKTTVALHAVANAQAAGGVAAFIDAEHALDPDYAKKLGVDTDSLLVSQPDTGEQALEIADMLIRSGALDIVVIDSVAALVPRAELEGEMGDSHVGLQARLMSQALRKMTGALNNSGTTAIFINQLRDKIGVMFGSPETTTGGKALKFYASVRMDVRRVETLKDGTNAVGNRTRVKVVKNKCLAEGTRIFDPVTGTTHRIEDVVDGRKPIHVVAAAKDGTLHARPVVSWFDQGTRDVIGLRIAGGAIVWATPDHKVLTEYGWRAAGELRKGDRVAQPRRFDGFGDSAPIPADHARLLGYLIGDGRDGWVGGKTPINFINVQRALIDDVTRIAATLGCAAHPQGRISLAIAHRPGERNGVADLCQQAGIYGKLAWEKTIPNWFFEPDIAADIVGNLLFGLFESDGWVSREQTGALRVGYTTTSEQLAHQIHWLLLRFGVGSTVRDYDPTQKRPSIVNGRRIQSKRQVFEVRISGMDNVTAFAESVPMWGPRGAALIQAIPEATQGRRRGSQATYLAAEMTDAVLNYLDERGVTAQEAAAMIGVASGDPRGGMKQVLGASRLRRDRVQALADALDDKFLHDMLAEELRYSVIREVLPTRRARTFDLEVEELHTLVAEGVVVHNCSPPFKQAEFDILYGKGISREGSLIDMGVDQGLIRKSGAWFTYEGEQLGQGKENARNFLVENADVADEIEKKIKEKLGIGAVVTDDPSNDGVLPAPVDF

Chain of Cytochrome P450 2D6 (P10635 whole entry): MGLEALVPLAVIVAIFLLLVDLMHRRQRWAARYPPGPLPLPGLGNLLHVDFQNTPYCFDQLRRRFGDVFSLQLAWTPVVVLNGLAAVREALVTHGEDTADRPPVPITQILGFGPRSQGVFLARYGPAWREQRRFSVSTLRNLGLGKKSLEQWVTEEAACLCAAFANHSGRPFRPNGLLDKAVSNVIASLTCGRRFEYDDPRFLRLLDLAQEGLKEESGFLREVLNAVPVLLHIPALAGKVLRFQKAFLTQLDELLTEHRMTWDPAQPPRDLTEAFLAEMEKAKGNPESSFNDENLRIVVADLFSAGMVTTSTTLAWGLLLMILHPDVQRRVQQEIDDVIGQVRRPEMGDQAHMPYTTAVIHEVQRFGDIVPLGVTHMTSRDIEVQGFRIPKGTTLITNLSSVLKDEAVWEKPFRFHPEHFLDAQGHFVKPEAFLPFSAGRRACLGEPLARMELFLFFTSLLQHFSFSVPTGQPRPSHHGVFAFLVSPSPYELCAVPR
Chain of Cytochrome P450 2C9 (P11712 whole entry): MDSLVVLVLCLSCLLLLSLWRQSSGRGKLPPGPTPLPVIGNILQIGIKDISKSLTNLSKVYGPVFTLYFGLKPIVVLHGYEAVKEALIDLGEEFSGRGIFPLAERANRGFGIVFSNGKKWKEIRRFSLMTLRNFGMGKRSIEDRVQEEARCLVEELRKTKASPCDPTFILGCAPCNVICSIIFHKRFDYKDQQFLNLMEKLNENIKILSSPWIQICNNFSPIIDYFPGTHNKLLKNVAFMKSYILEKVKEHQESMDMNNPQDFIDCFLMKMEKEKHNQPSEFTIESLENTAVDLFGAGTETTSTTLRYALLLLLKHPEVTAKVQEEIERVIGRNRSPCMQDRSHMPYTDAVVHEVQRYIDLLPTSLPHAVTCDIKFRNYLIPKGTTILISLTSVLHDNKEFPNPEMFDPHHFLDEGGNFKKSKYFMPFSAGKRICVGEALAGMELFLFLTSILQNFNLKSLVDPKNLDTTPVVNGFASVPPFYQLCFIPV

## CSCC(C)N1CCC(N2CCC(C(=O)NCc3ccccn3)CC2)CC1 (stereo not given)
[1]
  EC50: 161 µM (active)
[2]
  EC50: > 300 µM (not active)

## COc1cccc(C(=O)OCC(=O)Nc2nnc(-c3ccccc3)o2)c1
Streptococcus
  EC50: 60.9 µM (active)
cells
  IC50: 14.8 µM (active)
[3]
  EC50: 7.55 µM (active)
Streptokinase A
  EC50: > 150 µM (not active)

## CC1(CCl)[N+]([O-])=C2CCCCC2=[N+]1[O-]
[1]
  EC50: > 300 µM (not active)
[2]
  EC50: 121 µM (active)

## CCCCCC(=O)Nc1cccc(-c2nc3ncccc3o2)c1
Cytochrome P450 2D6
  AC50: 22.4 µM (inconclusive)

## CCN1C=CC2=C(C#N)C(N)C(C#N)(C#N)C(c3ccccc3C(F)(F)F)C2C1 (stereo not given)
[1]
  EC50: 260 µM (inconclusive)
[2]
  EC50: > 300 µM (not active)

## Cc1ccccc1OCCN=C(S)Nc1ccccc1
Cytochrome P450 1A2
  AC50: 3.16 µM (inconclusive)
Cytochrome P450 2C9
  AC50: 10 µM (inconclusive)

## O=S(=O)(Nc1cccnc1Cl)c1ccc2c(c1)OCCO2
Cytochrome P450 2C9
  AC50: 15.8 µM (inconclusive)

## CCn1nc(C)c(C2C(C#N)=C(N)Oc3[nH]nc(C)c32)c1C (stereo not given)
[4]
  AC50: 88.9 µM (active)
Protein RecA
  EC50: 12.5 µM (active)

## N#Cc1ccccc1-c1ccc2ncnc(NCCN3CCOCC3)c2c1
Cytochrome P450 2D6
  AC50: 39.8 µM (inconclusive)

## CCCc1nc(SCC(=O)N2CCc3ccccc3C2)c2ccccc2n1
[4]
  AC50: 14.1 µM (active)
Protein RecA
  EC50: 14.6 µM (active)

## C/C(=N/Nc1ccc2ccccc2n1)c1ccccc1O
Cytochrome P450 2C9
  AC50: 2.51 µM (inconclusive)

## Cc1c(NC(=O)C(Sc2ccccc2)c2ccccc2)cccc1[N+](=O)[O-] (stereo not given)
Cytochrome P450 2D6
  AC50: 3.16 µM (inconclusive)

## CC[C@H](C)C(=O)O[C@H]1CCC=C2C=C[C@H](C)[C@H](CC[C@@H]3C[C@H](O)CC(=O)O3)[C@H]21
Cytochrome P450 2D6
  AC50: 31.6 µM (inconclusive)
Cytochrome P450 1A2
  AC50: 31.6 µM (inconclusive)

## CCCC(CCC)C(=O)NNc1cc(O)c2c(=O)n(C)c(=O)n(C)c2n1
Cytochrome P450 2C9
  AC50: 0.178 µM (inconclusive)

## c1ccc(CN2CCC3(CCNCC3)CC2)cc1
Cytochrome P450 2C9
  AC50: 25.1 µM (inconclusive)
